Data: patent US9302999B2, “Substituted triazoles as herbicides” (E. I. DU PONT DE NEMOURS AND COMPANY, priority 2012, dated 2016)
Where two headings read alike, the source gives them in different places.

Legend:
Type in all cases: in vivo
rice (Oryza sativa) = assay: Test B flooded paddy: rice; conditions: Flood; 250 g ai/ha; applied to paddy water at 2-leaf stage; visually evaluated after 13 to 15 days
In short: (§1)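 Paddy-water application: seedlings at 2-leaf stage, flood depth 3 cm maintained for the test duration. Evaluation after 13–15 days in the greenhouse by eye relative to controls; 0–100 scale.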

[1] = test system: crabgrass, large (large crabgrass, Digitaria sanguinalis); assay: Test A pre-/postemergence: crabgrass, large; conditions: for pest or weed control at 125 g/ha / pest or weed control at 500 g/ha: Digitaria sanguinalis, 240 h; for pest or weed control at 125 g/ha: 125 g ai/ha; for pest or weed control at 500 g/ha: 500 g ai/ha; for Crabgrass, Large plant response rating: 1000 g ai/ha
In short: (§2)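 Rating scale 0–100 (100 = complete control), visual, ~10 days after application in the greenhouse. Applications: preemergence directed soil spray; postemergence at 1–2 leaves.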

[2] = test system: barnyardgrass (Echinochloa crus-galli); assay: Test B flooded paddy: barnyardgrass; conditions: Flood; 250 g ai/ha; applied to paddy water at 2-leaf stage; visually evaluated after 13 to 15 days
In short: as §1

[3] = test system: barnyardgrass (Echinochloa crus-galli); assay: Test A pre-/postemergence: barnyardgrass; conditions: for pest or weed control at 125 g/ha / pest or weed control at 500 g/ha: Echinochloa crus-galli, 240 h; for pest or weed control at 125 g/ha: 125 g ai/ha; for pest or weed control at 500 g/ha: 500 g ai/ha; for Barnyardgrass plant response rating: 1000 g ai/ha
In short: as §2

[4] = test system: morningglory (Ipomoea spp.); assay: Test A pre-/postemergence: morningglory; conditions: for Morningglory plant response rating: 1000 g ai/ha
In short: as §2

[5] = test system: pigweed (Amaranthus retroflexus); assay: Test A pre-/postemergence: pigweed; conditions: for pest or weed control at 125 g/ha / pest or weed control at 500 g/ha: Amaranthus retroflexus, 240 h; for pest or weed control at 125 g/ha: 125 g ai/ha; for pest or weed control at 500 g/ha: 500 g ai/ha; for Pigweed plant response rating: 1000 g ai/ha
In short: as §2

[6] = test system: lambsquarters (Chenopodium album); assay: Test C pre-/postemergence: lambsquarters
In short: (§3)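 Preemergence on seeds in loam/sand, postemergence on 2–18 cm (1–4-leaf) plants in peat-based medium; compounds in non-phytotoxic solvent with surfactant. After 13–15 days in greenhouse, visual rating versus controls, 0 (no effect) to 100 (complete control).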

soybean (Glycine max) = assay: Test C pre-/postemergence: soybean
In short: as §3

[7] = test system: blackgrass (Alopecurus myosuroides); assay: Test C pre-/postemergence: blackgrass
In short: as §3

[8] = test system: ragweed (common ragweed, Ambrosia elation); assay: Test C pre-/postemergence: ragweed
In short: as §3

[9] = Postemergence, visual rating on 0 to 100 scale (0 no effect, 100 complete control), approximately ten days
[10] = Preemergence, 0 to 100 scale, 0 is no effect, 100 is complete control
[11] = Postemergence, 31 g ai/ha, scale 0 to 100 (0 no effect, 100 complete control)
[12] = Postemergence, 62 g ai/ha, scale 0 to 100 (0 no effect, 100 complete control)
[13] = Postemergence, 125 g ai/ha, scale 0 to 100, 0 no effect, 100 complete control
[14] = Postemergence, 250 g ai/ha, scale 0 to 100
[15] = Preemergence, 31 g ai/ha, scale of 0 to 100, 0 is no effect, 100 is complete control
[16] = Preemergence, 62 g ai/ha, scale of 0 to 100, 0 is no effect, 100 is complete control
[17] = Preemergence, 125 g ai/ha, scale 0 to 100, 0 no effect, 100 complete control
[18] = Preemergence, 250 g ai/ha, scale 0 to 100, 0 no effect, 100 complete control

Structure (SMILES): Cc1nn(-c2ccc(F)cc2F)nc1Cc1ccnc(C(F)(F)F)c1 [Compound 54, 4-[[2-(2,4-difluorophenyl)-5-methyl-2H-1,2,3-triazol-4-yl]methyl]-2-(trifluoromethyl)pyridine]
- Plant response rating, Rice (0 to 100 scale, 0 is no effect, 100 is complete control) (rice (Oryza sativa)): 30
- pest or weed control at 125 g/ha ([1]; post-emergence, Postemergence, 0 to 100 scale, 0 is no effect, 100 is complete control, read-out: Crabgrass, Large plant response rating): 80%
- pest or weed control at 500 g/ha ([1]; post-emergence, Postemergence, visual rating on 0 to 100 scale (0 no effect, 100 complete control), approximately ten days, read-out: Crabgrass, Large plant response rating): 90%
- pest or weed control at 125 g/ha ([1]; pre-emergence, Preemergence, 0 to 100 scale (0 no effect, 100 complete control), read-out: Plant response rating, Crabgrass, Large): 100%
- pest or weed control at 500 g/ha ([1]; pre-emergence, Preemergence, 0 to 100 scale, 0 is no effect, 100 is complete control, read-out: Plant response rating, Crabgrass, Large): 100%
- Plant response rating, Barnyardgrass (0 to 100 scale, 0 is no effect, 100 is complete control) [2]: 30
- pest or weed control at 125 g/ha ([3]; post-emergence, Postemergence, 0 to 100 scale, 0 is no effect, 100 is complete control, read-out: Barnyardgrass plant response rating): 70%
- pest or weed control at 500 g/ha ([3]; post-emergence, Postemergence, visual rating on 0 to 100 scale (0 no effect, 100 complete control), approximately ten days, read-out: Barnyardgrass plant response rating): 90%
- pest or weed control at 125 g/ha ([3]; pre-emergence, Preemergence, 0 to 100 scale (0 no effect, 100 complete control), read-out: Plant response rating, Barnyardgrass): 80%
- pest or weed control at 500 g/ha ([3]; pre-emergence, Preemergence, 0 to 100 scale, 0 is no effect, 100 is complete control, read-out: Plant response rating, Barnyardgrass): 100%
- pest or weed control at 125 g/ha ([4]; Ipomoea, pre-emergence, 240 h, Preemergence, 125 g ai/ha, 0 to 100 scale (0 no effect, 100 complete control), read-out: Plant response rating, Morningglory): 60%
- pest or weed control at 500 g/ha ([4]; Ipomoea, pre-emergence, 240 h, Preemergence, 500 g ai/ha, 0 to 100 scale, 0 is no effect, 100 is complete control, read-out: Plant response rating, Morningglory): 90%
- pest or weed control at 125 g/ha ([5]; post-emergence, Postemergence, 0 to 100 scale, 0 is no effect, 100 is complete control, read-out: Pigweed plant response rating): 100%
- pest or weed control at 500 g/ha ([5]; post-emergence, Postemergence, visual rating on 0 to 100 scale (0 no effect, 100 complete control), approximately ten days, read-out: Pigweed plant response rating): 100%
- pest or weed control at 125 g/ha ([5]; pre-emergence, Preemergence, 0 to 100 scale (0 no effect, 100 complete control), read-out: Plant response rating, Pigweed): 100%
- pest or weed control at 500 g/ha ([5]; pre-emergence, Preemergence, 0 to 100 scale, 0 is no effect, 100 is complete control, read-out: Plant response rating, Pigweed): 100%

Structure (SMILES): Cc1nn(-c2ccc(C(F)(F)F)cn2)nc1Cc1cccc(C(F)(F)F)c1 [Compound 106]
- Crabgrass, Large plant response rating [1, 9]: 80
- Crabgrass, Large plant response rating [1, 10]: 90
- Barnyardgrass plant response rating [3, 9]: 40
- Barnyardgrass plant response rating [3, 10]: 50
- Morningglory plant response rating [4, 9]: 100
- Morningglory plant response rating [4, 10]: 20
- Plant response rating, Lambsquarters [6, 11]: 80
- Plant response rating, Lambsquarters [6, 12]: 100
- Plant response rating, Lambsquarters [6, 13]: 100
- Plant response rating, Lambsquarters [6, 14]: 100
- Plant response rating, Lambsquarters [6, 15]: 85
- Plant response rating, Lambsquarters [6, 16]: 100
- Plant response rating, Lambsquarters [6, 17]: 100
- Plant response rating, Lambsquarters [6, 18]: 100
- Pigweed plant response rating [5, 9]: 100
- Pigweed plant response rating [5, 10]: 90
- Plant response rating, Soybean (soybean (Glycine max); [11]): 10
- Plant response rating, Soybean (soybean (Glycine max); [12]): 15
- Plant response rating, Soybean (soybean (Glycine max); [13]): 60
- Plant response rating, Soybean (soybean (Glycine max); [14]): 65
- Plant response rating, Soybean (soybean (Glycine max); [15]): 0
- Plant response rating, Soybean (soybean (Glycine max); [16]): 0
- Plant response rating, Soybean (soybean (Glycine max); [17]): 5
- Plant response rating, Soybean (soybean (Glycine max); [18]): 5
- Plant response rating, Blackgrass [7, 11]: 30
- Plant response rating, Blackgrass [7, 12]: 40
- Plant response rating, Blackgrass [7, 13]: 45
- Plant response rating, Blackgrass [7, 14]: 60
- Plant response rating, Blackgrass [7, 15]: 50
- Plant response rating, Blackgrass ([7]; Preemergence, 62 g ai/ha, scale 0 to 100, 0 no effect, 100 complete control): 50
- Plant response rating, Blackgrass [7, 17]: 90
- Plant response rating, Blackgrass [7, 18]: 95
- Plant response rating, Ragweed [8, 11]: 10
- Plant response rating, Ragweed [8, 12]: 55
- Plant response rating, Ragweed [8, 13]: 60
- Plant response rating, Ragweed [8, 14]: 60
- Plant response rating, Ragweed [8, 15]: 0
- Plant response rating, Ragweed [8, 16]: 0
- Plant response rating, Ragweed [8, 17]: 0
- Plant response rating, Ragweed [8, 18]: 55
